Results as given in the OligoGym collection.
Oligonucleotides are written 5' to 3', each unit as a sugar letter and its base; * is a phosphorothioate linkage, no mark a phosphodiester; rarer units and linkages stand in square brackets, end groups in braces. Plain capitals give the bases only. d = 2'-deoxy (DNA); r = 2'-OH (RNA)

Molecular target: P2rx2 (rat)
Experiment: reporter assay of Huesken 2005
Settings: siRNA
Also: test concentration or dose not given here.

Substance | normalised inhibition (eCFP-eYFP dual reporter) [%]
sense rArArArGrUrCrArArGrGrGrGrArUrCrArCrCrAdTdT / antisense rUrGrGrUrGrArUrCrCrCrCrUrUrGrArCrUrUrUdGdG | 66.2
sense rArArArUrUrUrCrArCrCrArUrCrCrUrCrArUrCdTdT / antisense rGrArUrGrArGrGrArUrGrGrUrGrArArArUrUrUdGdG | 23.6
sense rArArCrArArGrCrUrCrUrArCrArGrCrCrArUrAdTdT / antisense rUrArUrGrGrCrUrGrUrArGrArGrCrUrUrGrUrUdTdT | 76.6
sense rArArCrUrGrUrGrArCrCrUrGrGrArCrUrUrGrUdTdT / antisense rArCrArArGrUrCrCrArGrGrUrCrArCrArGrUrUdCdC | 38.6
sense rArArGrCrCrUrArUrGrGrGrArUrUrCrGrArArUdTdT / antisense rArUrUrCrGrArArUrCrCrCrArUrArGrGrCrUrUdTdG | 76
sense rArCrArArGrArUrArArArCrGrGrCrArCrUrArCdTdT / antisense rGrUrArGrUrGrCrCrGrUrUrUrArUrCrUrUrGrUdAdA | 50.6
sense rArCrArGrCrUrCrUrArCrCrUrGrCrCrArUrUrCdTdT / antisense rGrArArUrGrGrCrArGrGrUrArGrArGrCrUrGrUdGdA | 42.3
sense rArCrCrArGrGrArCrArGrCrGrArGrArCrCrGrGdTdT / antisense rCrCrGrGrUrCrUrCrGrCrUrGrUrCrCrUrGrGrUdAdG | 49.5
sense rArCrGrUrCrUrUrCrArUrCrGrUrGrCrArGrArAdTdT / antisense rUrUrCrUrGrCrArCrGrArUrGrArArGrArCrGrUdAdC | 85.2
sense rArCrUrArCrCrArCrCrArCrUrCrGrArArCrUrCdTdT / antisense rGrArGrUrUrCrGrArGrUrGrGrUrGrGrUrArGrUdGdC | 43.6
sense rArCrUrCrCrCrArGrGrArUrCrArGrCrCrArCrCdTdT / antisense rGrGrUrGrGrCrUrGrArUrCrCrUrGrGrGrArGrUdAdG | 44.7
sense rArCrUrUrCrUrGrArCrArArCrCrArUrUrUrUrCdTdT / antisense rGrArArArArUrGrGrUrUrGrUrCrArGrArArGrUdTdC | 33.5
sense rArGrCrArUrArUrGrGrGrArCrArArArGrArCrCdTdT / antisense rGrGrUrCrUrUrUrGrUrCrCrCrArUrArUrGrCrUdGdG | 53.1
sense rArGrGrArUrCrGrArGrGrUrUrArCrCrCrCrUrUdTdT / antisense rArArGrGrGrGrUrArArCrCrUrCrGrArUrCrCrUdGdG | 76.8
sense rArGrGrCrUrGrGrGrUrUrUrCrArUrUrGrUrUrGdTdT / antisense rCrArArCrArArUrGrArArArCrCrCrArGrCrCrUdGdA | 64.9
sense rArGrGrGrCrArCrUrGrUrGrUrArCrCrCrUrArUdTdT / antisense rArUrArGrGrGrUrArCrArCrArGrUrGrCrCrCrUdGdT | 55

Molecular target: UBE2T
Experiment: reporter assay of Huesken 2005
Settings: siRNA

Substance | normalised inhibition (eCFP-eYFP dual reporter) [%]
sense rUrArUrCrArUrCrCrArArArCrArUrUrGrArUrUdTdT / antisense rArArUrCrArArUrGrUrUrUrGrGrArUrGrArUrAdAdA | 67.4
sense rUrArUrUrArGrGrUrGrGrArGrCrCrArArCrArCdTdT / antisense rGrUrGrUrUrGrGrCrUrCrCrArCrCrUrArArUrAdTdT | 57.4
sense rUrCrArArCrArCrArGrArArArArGrGrArArGrGdTdT / antisense rCrCrUrUrCrCrUrUrUrUrCrUrGrUrGrUrUrGrAdGdT | 65.5
sense rUrCrArArCrArUrCrGrCrArArCrUrGrUrGrUrUdTdT / antisense rArArCrArCrArGrUrUrGrCrGrArUrGrUrUrGrAdGdG | 103
sense rUrCrArCrUrCrCrArArUrUrUrArUrCrArUrCrCdTdT / antisense rGrGrArUrGrArUrArArArUrUrGrGrArGrUrGrAdGdA | 56.8
sense rUrCrCrGrArUrUrUrCrUrCrArCrUrCrCrArArUdTdT / antisense rArUrUrGrGrArGrUrGrArGrArArArUrCrGrGrAdTdC | 109
sense rUrCrUrArCrCrArGrArGrGrCrUrGrGrUrGrArCdTdT / antisense rGrUrCrArCrCrArGrCrCrUrCrUrGrGrUrArGrAdTdT | 63.5
sense rUrCrUrGrCrUrGrGrArArGrGrArUrUrUrGrUrCdTdT / antisense rGrArCrArArArUrCrCrUrUrCrCrArGrCrArGrAdAdT | 87.8
sense rUrCrUrGrGrArUrGrUrUrCrUrCrArArArUrUrGdTdT / antisense rCrArArUrUrUrGrArGrArArCrArUrCrCrArGrAdCdA | 80.8
sense rUrGrArArCrCrUrCrCrUrCrArGrArUrCrCrGrAdTdT / antisense rUrCrGrGrArUrCrUrGrArGrGrArGrGrUrUrCrAdAdA | 105
sense rUrGrArGrArGrGrUrArCrCrCrArUrUrUrGrArAdTdT / antisense rUrUrCrArArArUrGrGrGrUrArCrCrUrCrUrCrAdGdG | 87.4
sense rUrGrArGrGrArArGrArGrArUrGrCrUrUrGrArUdTdT / antisense rArUrCrArArGrCrArUrCrUrCrUrUrCrCrUrCrAdTdC | 91.6
sense rUrGrArUrGrArCrCrCrGrCrUrCrArUrGrGrCrUdTdT / antisense rArGrCrCrArUrGrArGrCrGrGrGrUrCrArUrCrAdGdG | 75.6
sense rUrGrArUrUrCrUrGrCrUrGrGrArArGrGrArUrUdTdT / antisense rArArUrCrCrUrUrCrCrArGrCrArGrArArUrCrAdAdT | 95.4
sense rUrGrGrArUrGrUrUrCrUrCrArArArUrUrGrCrCdTdT / antisense rGrGrCrArArUrUrUrGrArGrArArCrArUrCrCrAdGdA | 71.9
sense rUrGrGrUrGrArCrUrCrCrArGrArGrUrArCrArCdTdT / antisense rGrUrGrUrArCrUrCrUrGrGrArGrUrCrArCrCrAdGdC | 80.3
sense rUrGrUrUrCrUrCrArArArUrUrGrCrCrArCrCrAdTdT / antisense rUrGrGrUrGrGrCrArArUrUrUrGrArGrArArCrAdTdC | 53.3
sense rUrGrUrUrGrGrCrArArGrArUrArArArGrArCrCdTdT / antisense rGrGrUrCrUrUrUrArUrCrUrUrGrCrCrArArCrAdTdG | 75.8
sense rUrUrArArGrCrUrArGrArArGrUrUrArUrCrArUdTdT / antisense rArUrGrArUrArArCrUrUrCrUrArGrCrUrUrArAdAdA | 89.9
sense rUrUrGrArArCrCrUrCrCrUrCrArGrArUrCrCrGdTdT / antisense rCrGrGrArUrCrUrGrArGrGrArGrGrUrUrCrArAdAdT | 56.5
sense rUrUrGrArCrCrUrCrUrArUrUrCrArGrCrUrGrCdTdT / antisense rGrCrArGrCrUrGrArArUrArGrArGrGrUrCrArAdCdA | 49.2
